From article PMC8161735 (Toxicology, 2021)

Molecular target: human ether-a-go-go-related gene (hERG) potassium channel (Homo sapiens, UniProt Q12809)
Test: whole-cell patch clamp, hERG tail current in hERG-HEK-293 cells
Format: cell-based

Chain of human ether-a-go-go-related gene (hERG) potassium channel (Q12809 whole entry): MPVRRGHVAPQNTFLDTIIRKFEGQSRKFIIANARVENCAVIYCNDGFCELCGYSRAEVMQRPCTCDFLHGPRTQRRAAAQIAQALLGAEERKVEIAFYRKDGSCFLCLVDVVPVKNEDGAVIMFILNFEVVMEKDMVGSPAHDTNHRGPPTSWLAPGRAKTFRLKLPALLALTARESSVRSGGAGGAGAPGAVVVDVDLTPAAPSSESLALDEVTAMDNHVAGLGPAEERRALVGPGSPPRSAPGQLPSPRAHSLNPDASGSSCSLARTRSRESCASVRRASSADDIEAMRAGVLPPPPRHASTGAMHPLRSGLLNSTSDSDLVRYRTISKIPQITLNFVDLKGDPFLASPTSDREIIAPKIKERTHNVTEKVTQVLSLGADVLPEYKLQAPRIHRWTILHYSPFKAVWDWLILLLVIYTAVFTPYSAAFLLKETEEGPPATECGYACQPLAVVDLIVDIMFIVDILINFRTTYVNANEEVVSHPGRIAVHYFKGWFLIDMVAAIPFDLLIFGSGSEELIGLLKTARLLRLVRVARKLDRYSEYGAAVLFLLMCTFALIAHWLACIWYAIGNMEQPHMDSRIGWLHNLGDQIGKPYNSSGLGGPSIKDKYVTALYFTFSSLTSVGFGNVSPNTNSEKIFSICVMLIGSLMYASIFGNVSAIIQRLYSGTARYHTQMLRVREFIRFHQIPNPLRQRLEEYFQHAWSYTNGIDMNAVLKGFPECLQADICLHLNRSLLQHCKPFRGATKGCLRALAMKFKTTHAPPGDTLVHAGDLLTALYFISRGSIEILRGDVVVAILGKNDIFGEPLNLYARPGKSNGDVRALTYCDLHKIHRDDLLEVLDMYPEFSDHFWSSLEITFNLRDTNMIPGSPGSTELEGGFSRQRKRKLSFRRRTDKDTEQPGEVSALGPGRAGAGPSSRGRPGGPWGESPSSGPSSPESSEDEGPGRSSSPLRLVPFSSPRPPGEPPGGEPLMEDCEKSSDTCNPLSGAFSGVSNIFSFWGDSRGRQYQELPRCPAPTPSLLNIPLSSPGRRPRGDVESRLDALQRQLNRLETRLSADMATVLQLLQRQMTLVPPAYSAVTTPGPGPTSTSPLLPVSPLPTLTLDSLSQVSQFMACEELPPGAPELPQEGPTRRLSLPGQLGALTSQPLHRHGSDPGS

SMILES: CCN(CCO)CCCC(C)Nc1ccnc2cc(Cl)ccc12 (stereo not shown) [HCQ, Hydroxychloroquine]
- IC50: 8.6 µM
